Experimental data taken from patent US7105654B1, “Ethylene receptor gene from Glycine max and its use” (Monsanto Technology LLC, priority 2002, dated 2006).

System: soybean (Glycine max) seedlings
Assay: ACC insensitivity assay (hypocotyl length of dark-grown seedlings)
Format: in vivo
Settings: nontransformed soybean variety Asgrow A4922, grown in the dark; without ACC greater than 70 millimeters
Description: FIG. 4. R1 seeds from pMON47103, pMON47104, and pMON47108 were screened by an ACC insensitivity assay. […] Hypocotyl length was measured after six days and the average value presented.
Seeds were germinated in growth pouches (Mega International, Minneapolis, Minn.) containing 25 milliliters of 25 micromolar 1-aminocyclopropane-1-carboxylic acid (ACC) (Sigma Chemical Company) or in tissue culture boxes containing agar, water, and 20 micromolar ACC. Seedlings were kept in the dark for seven days. Growth of hypocotyl and root were scored in comparison to seedlings grown in water with all other conditions identical. An alternative protocol was used to measure growth in a solid matrix. Vermiculite was placed in a 4″×4″ plastic pot to ½″ below the rim. Twelve seeds were placed in each pot beneath the surface of the vermiculite. A solution of 500 micromolar ACC in distilled water was used to saturate the vermiculite. The pots were placed in a tray with additional solution to ensure a supply during incubation. The plants were incubated in a dark ventilated cabinet at room temperature for six days. On the sixth day, seedlings were removed from the vermiculite and rinsed. The hypocotyl length (from first lateral root to the bend of the apical hook) was measured and compared against wild type plants grown in the same environmental condition. […]

For `NC1(C(=O)O)CC1` [ACC, 1-aminocyclopropane-1-carboxylic acid], the “average height of seedlings in response to applied ACC” value was “less than 20 millimeters”.
